ChEMBL document CHEMBL1201862, “PubChem BioAssay data set” (2004)
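Five concentrations, 48 hours, 96-well plates. GI50 marks 50% less growth.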 Active and inactive are the calls of the source. Cut-off read from the data, not from the text of the source: active = GI50 up to about 1.1 µM and inactive = higher.

Key:
Experiment in all cases: inhibition of tumour cell growth, NCI panel, 48 h
SK-MEL-28 = tested on: SK-MEL-28
RPMI-8226 = tested on: RPMI-8226
SN12C = tested on: SN12C
RXF 631 = tested on: RXF 631
HL-60 = tested on: HL-60
HOP-62 = tested on: HOP-62
KM12 = tested on: KM12
ACHN = tested on: ACHN
COLO 205 = tested on: COLO 205
TK-10 = tested on: TK-10
SNB-78 = tested on: SNB-78
NCI-H23 = tested on: NCI-H23
UACC-257 = tested on: UACC-257
KM-20L2 = tested on: KM-20L2
SR = tested on: SR
HCC 2998 = tested on: HCC 2998
SNB-19 = tested on: SNB-19
LXFL 529 = tested on: LXFL 529
OVCAR-3 = tested on: OVCAR-3
M19-MEL = tested on: M19-MEL
HOP-18 = tested on: HOP-18
A549 = tested on: A549
IGROV-1 = tested on: IGROV-1
OVCAR-5 = tested on: OVCAR-5
U-251 = tested on: U-251
EKVX = tested on: EKVX
SF-295 = tested on: SF-295
786-0 = tested on: 786-0
XF498 = tested on: XF498
MOLT-4 = tested on: MOLT-4
DLD-1 = tested on: DLD-1
HCT-116 = tested on: HCT-116
NCI-H226 = tested on: NCI-H226
LOX IMVI = tested on: LOX IMVI
HT-29 = tested on: HT-29
K562 = tested on: K562
Malme-3M = tested on: Malme-3M
RXF 393 = tested on: RXF 393
SW-620 = tested on: SW-620
OVCAR-4 = tested on: OVCAR-4
UACC-62 = tested on: UACC-62
CAKI-1 = tested on: CAKI-1
OVCAR-8 = tested on: OVCAR-8
M14 = tested on: M14
NCI-H522 = tested on: NCI-H522
NCI-H460 = tested on: NCI-H460
SF-268 = tested on: SF-268
DMS-273 = tested on: DMS-273
SK-MEL-5 = tested on: SK-MEL-5
SF-539 = tested on: SF-539
SK-MEL-2 = tested on: SK-MEL-2
HCT-15 = tested on: HCT-15
HOP-92 = tested on: HOP-92
SK-OV-3 = tested on: SK-OV-3
CCRF-CEM = tested on: CCRF-CEM
A498 = tested on: A498
UO-31 = tested on: UO-31
SNB-75 = tested on: SNB-75

CC(=O)OC1COC(N2C(=O)/C(=N\Nc3ccc([N+](=O)[O-])cc3)c3cc(Br)c([N+](=O)[O-])cc32)C(OC(C)=O)C1OC(C)=O (stereo not drawn)
GI50 (SK-MEL-28): > 100 µM (inactive) | GI50 (RPMI-8226): > 100 µM (inactive) | GI50 (SN12C): > 100 µM (inactive) | GI50 (RXF 631): 22.2 µM (inactive) | GI50 (HL-60): 65.6 µM (inactive) | GI50 (HOP-62): 38.5 µM (inactive) | GI50 (KM12): 27.9 µM (inactive) | GI50 (ACHN): 21.6 µM (inactive) | GI50 (COLO 205): > 100 µM (inactive) | GI50 (TK-10): > 100 µM (inactive) | GI50 (SNB-78): 27.2 µM (inactive) | GI50 (NCI-H23): 31.6 µM (inactive) | GI50 (UACC-257): > 100 µM (inactive) | GI50 (KM-20L2): 32.1 µM (inactive) | GI50 (SR): 98.9 µM (inactive) | GI50 (HCC 2998): > 100 µM (inactive) | GI50 (SNB-19): > 100 µM (inactive) | GI50 (LXFL 529): 21.8 µM (inactive) | GI50 (OVCAR-3): > 100 µM (inactive) | GI50 (M19-MEL): > 100 µM (inactive) | GI50 (HOP-18): > 100 µM (inactive) | GI50 (A549): > 100 µM (inactive) | GI50 (IGROV-1): 26.2 µM (inactive) | GI50 (OVCAR-5): > 100 µM (inactive) | GI50 (U-251): 36.8 µM (inactive) | GI50 (EKVX): 62.7 µM (inactive) | GI50 (SF-295): 21.4 µM (inactive) | GI50 (786-0): 42 µM (inactive) | GI50 (XF498): 32.8 µM (inactive) | GI50 (MOLT-4): > 100 µM (inactive) | GI50 (DLD-1): > 100 µM (inactive) | GI50 (HCT-116): 44.6 µM (inactive) | GI50 (NCI-H226): > 100 µM (inactive) | GI50 (LOX IMVI): 51.1 µM (inactive) | GI50 (HT-29): 74.5 µM (inactive) | GI50 (K562): 41 µM (inactive) | GI50 (Malme-3M): > 100 µM (inactive) | GI50 (RXF 393): 15.5 µM (inactive) | GI50 (SW-620): 46 µM (inactive) | GI50 (OVCAR-4): 32.9 µM (inactive) | GI50 (UACC-62): 15.3 µM (inactive) | GI50 (CAKI-1): 50.4 µM (inactive) | GI50 (OVCAR-8): > 100 µM (inactive) | GI50 (M14): 55.8 µM (inactive) | GI50 (NCI-H522): 24.1 µM (inactive) | GI50 (NCI-H460): > 100 µM (inactive) | GI50 (SF-268): 26.4 µM (inactive) | GI50 (DMS-273): 35.2 µM (inactive) | GI50 (SK-MEL-5): 24.1 µM (inactive) | GI50 (SF-539): 68.2 µM (inactive) | GI50 (SK-MEL-2): > 100 µM (inactive) | GI50 (HCT-15): 33 µM | GI50 (HOP-92): 8.26 µM (inactive) | GI50 (SK-OV-3): 40.6 µM (inactive) | GI50 (CCRF-CEM): 61.5 µM (inactive)

N#Cc1ccc([N+](=O)[O-])cc1NC(N)=S
GI50 (SK-MEL-28): > 100 µM (inactive) | GI50 (RPMI-8226): > 100 µM (inactive) | GI50 (SN12C): > 100 µM (inactive) | GI50 (RXF 631): > 100 µM (inactive) | GI50 (HOP-62): > 100 µM (inactive) | GI50 (KM12): > 100 µM (inactive) | GI50 (COLO 205): > 100 µM (inactive) | GI50 (SNB-78): > 100 µM (inactive) | GI50 (KM-20L2): > 100 µM (inactive) | GI50 (SR): > 100 µM (inactive) | GI50 (A498): > 100 µM (inactive) | GI50 (HCC 2998): > 100 µM (inactive) | GI50 (SNB-19): > 100 µM (inactive) | GI50 (LXFL 529): 16.3 µM (inactive) | GI50 (OVCAR-3): > 100 µM (inactive) | GI50 (M19-MEL): > 100 µM (inactive) | GI50 (HOP-18): > 100 µM (inactive) | GI50 (A549): > 100 µM (inactive) | GI50 (IGROV-1): > 100 µM (inactive) | GI50 (OVCAR-5): > 100 µM (inactive) | GI50 (U-251): > 100 µM (inactive) | GI50 (EKVX): > 100 µM (inactive) | GI50 (SF-295): > 100 µM (inactive) | GI50 (XF498): > 100 µM (inactive) | GI50 (MOLT-4): > 100 µM (inactive) | GI50 (HCT-116): > 100 µM (inactive) | GI50 (HT-29): > 100 µM (inactive) | GI50 (Malme-3M): > 100 µM (inactive) | GI50 (UO-31): > 100 µM (inactive) | GI50 (SW-620): > 100 µM (inactive) | GI50 (CAKI-1): > 100 µM (inactive) | GI50 (OVCAR-8): > 100 µM (inactive) | GI50 (SNB-75): > 100 µM (inactive) | GI50 (M14): > 100 µM (inactive) | GI50 (NCI-H522): > 100 µM (inactive) | GI50 (SF-268): > 100 µM (inactive) | GI50 (DMS-273): > 100 µM (inactive) | GI50 (SK-MEL-5): > 100 µM (inactive) | GI50 (SF-539): > 100 µM (inactive) | GI50 (SK-MEL-2): > 100 µM (inactive) | GI50 (HCT-15): > 100 µM | GI50 (HOP-92): > 100 µM (inactive) | GI50 (SK-OV-3): > 100 µM (inactive)
